For twelve molecules, IC50 and Activity results are on record in ChEMBL document CHEMBL6127102 (Bioorg Med Chem, 2024).

Activity calls are given as the source filed them. The calls are words filed in the database; no cut-off is given here.

Data set [1] has as its system MDA-MB-231. In words: Antitumor activity against human MDA-MB-231 cells harboring wild-type BRCA incubated for 72 hrs by MTT assay. Format: functional, cell-based. As to conditions: MDA-MB-231, 72 h.
The test system of a further data set is MDA-MB-468. In words: Antitumor activity against human MDA-MB-468 cells harboring wild-type BRCA incubated for 72 hrs by MTT assay. As to conditions: MDA-MB-468, 72 h. The format is functional, cell-based.
A further data set concerns HCC1937. The data set can be described thus: Antitumor activity against BRCA 1-deficient human HCC1937 cells incubated for 72 hrs by MTT assay. As to conditions: HCC1937, 72 h. The format is functional, cell-based.
The subject of a further data set is MDA-MB-436. The data set can be described thus: Antitumor activity against BRCA 1-deficient human MDA-MB-436 cells incubated for 72 hrs by MTT assay. The note with it: MDA-MB-436, 72 h. Format: functional, cell-based.
Data set [2] is described as follows: Cytotoxicity against human MCF-10A cells incubated for 72 hrs by MTT assay. Format: toxicity, cell-based.
Data set [3] relates to MDA-MB-231. In words: Induction of apoptosis in human MDA-MB-231 cells as increase in red fluorescence at 5 uM incubated for 24 hrs by Calcein AM/PI staining based confocal microscopy. Format: functional, cell-based.
Data set [4] has as its system MDA-MB-231. The data set can be described thus: Effect on RAF expression in human MDA-MB-231 cells at 5 uM incubated for 24 hrs by Western blot analysis. The format is functional, cell-based.
Data set [5] has as its system MDA-MB-231. The data set can be described thus: Effect on CRAF expression in human MDA-MB-231 cells at 5 uM incubated for 24 hrs by Western blot analysis. Format: functional, cell-based.
Data set [6] relates to MDA-MB-231. In words: Effect on MEK phosphorylation in human MDA-MB-231 cells at 5 uM incubated for 24 hrs by Western blot analysis. Format: functional, cell-based.
Data set [7] relates to MDA-MB-231. The data set can be described thus: Effect on ERK1/2 phosphorylation in human MDA-MB-231 cells at 5 uM incubated for 24 hrs by Western blot analysis. The format is functional, cell-based.
Data set [8] deals with MDA-MB-231. The data set can be described thus: Induction of DNA damage in human MDA-MB-231 cells assessed as increase in olive tail moments at 5 uM incubated for 24 hrs by Comet assay. The format is functional, cell-based.
Data set [9] relates to MDA-MB-231. The data set can be described thus: Induction of ROS generation in human MDA-MB-231 cells at 5 uM incubated for 24 hrs by DCFH-DA staining based flow cytometric analysis. The format is functional, cell-based.
Data set [10] deals with Poly [ADP-ribose] polymerase 1 (Homo sapiens, UniProt P09874). In words: Inhibition of PARP1 (unknown origin) using histone as substrate incubated for 60 mins by ELISA.
For data set [11], the system named is MDA-MB-231. The data set can be described thus: Induction of DNA damage in human MDA-MB-231 cells assessed as increase in gamma-H2AX level at 5 uM incubated for 24 hrs by immunofluorescence based analysis. Format: functional, cell-based.
Data set [12] deals with MDA-MB-231. The data set can be described thus: Induction of apoptosis in human MDA-MB-231 cells at 5 uM incubated for 24 hrs by Annexin V-FITC/PI staining based flow cytometry relative to control. Format: functional.
A short description of data set [13]: Induction of depolarization of mitochondrial membrane potential in human MDA-MB-231 cells at 5 uM incubated for 24 hrs by JC-1 staining based flow cytometry relative to control. The format is functional.
In data set [14] the test system is MDA-MB-231. The data set can be described thus: Anti-migration activity in human MDA-MB-231 cells assessed as wound closure area at 1 uM incubated for 24 hrs by wound healing assay (reference value: 75.6 %). Format: functional.
Data set [15] has as its system MDA-MB-231. In words: […] activity in human MDA-MB-231 cells at 1 uM incubated for 24 hrs by wound healing assay. The format is functional, cell-based.
Data set [16] deals with MDA-MB-231. The data set can be described thus: Induction of apoptosis in human MDA-MB-231 cells assessed as increase in Bax level at 5 uM incubated for 24 hrs by Western blot analysis. Format: functional, cell-based.
Data set [17] relates to MDA-MB-231. In words: Induction of apoptosis in human MDA-MB-231 cells assessed as decrease in Bcl-2 level at 5 uM incubated for 24 hrs by Western blot analysis. Format: functional, cell-based.
The nature of data set [18]: Toxicity in BALB/c nude mouse xenografted with human MDA-MB-231 cells assessed as body weight change at 20 mg/kg, ip administered on every 2 days for 28 days. Format: organism-based. The note with it: in vivo, 672 h, time 28 day.
Data set [19] is described as follows: Toxicity in BALB/c nude mouse xenografted with human MDA-MB-231 cells assessed as drug tolerance at 20 mg/kg, ip administered on every 2 days for 28 days. The format is organism-based. As to conditions: in vivo, 672 h, time 28 day.
Data set [20] concerns MDA-MB-231. The data set can be described thus: Antitumor activity against human MDA-MB-231 cells xenografted in BALB/c nude mouse assessed as increase in apoptotic cells at 20 mg/kg, ip administered on every 2 days for 28 days by H and E staining based analysis. Format: functional, organism-based. As to conditions: time 28.0 day.
Data set [21] relates to MDA-MB-231. The data set can be described thus: Antitumor activity against human MDA-MB-231 cells xenografted in BALB/c nude mouse assessed as increase in necrotic cells at 20 mg/kg, ip administered on every 2 days for 28 days by H and E staining based analysis. The note with it: time 28.0 day. The format is functional, organism-based.
Data set [22] relates to MDA-MB-231. In words: Antitumor activity against human MDA-MB-231 cells xenografted in BALB/c nude mouse assessed as decrease in Ki-67 expression at 20 mg/kg, ip administered on every 2 days for 28 days by H and E staining based analysis. Format: functional, organism-based. The note with it: time 28.0 day.

Sequence of Poly [ADP-ribose] polymerase 1 (P09874 whole entry): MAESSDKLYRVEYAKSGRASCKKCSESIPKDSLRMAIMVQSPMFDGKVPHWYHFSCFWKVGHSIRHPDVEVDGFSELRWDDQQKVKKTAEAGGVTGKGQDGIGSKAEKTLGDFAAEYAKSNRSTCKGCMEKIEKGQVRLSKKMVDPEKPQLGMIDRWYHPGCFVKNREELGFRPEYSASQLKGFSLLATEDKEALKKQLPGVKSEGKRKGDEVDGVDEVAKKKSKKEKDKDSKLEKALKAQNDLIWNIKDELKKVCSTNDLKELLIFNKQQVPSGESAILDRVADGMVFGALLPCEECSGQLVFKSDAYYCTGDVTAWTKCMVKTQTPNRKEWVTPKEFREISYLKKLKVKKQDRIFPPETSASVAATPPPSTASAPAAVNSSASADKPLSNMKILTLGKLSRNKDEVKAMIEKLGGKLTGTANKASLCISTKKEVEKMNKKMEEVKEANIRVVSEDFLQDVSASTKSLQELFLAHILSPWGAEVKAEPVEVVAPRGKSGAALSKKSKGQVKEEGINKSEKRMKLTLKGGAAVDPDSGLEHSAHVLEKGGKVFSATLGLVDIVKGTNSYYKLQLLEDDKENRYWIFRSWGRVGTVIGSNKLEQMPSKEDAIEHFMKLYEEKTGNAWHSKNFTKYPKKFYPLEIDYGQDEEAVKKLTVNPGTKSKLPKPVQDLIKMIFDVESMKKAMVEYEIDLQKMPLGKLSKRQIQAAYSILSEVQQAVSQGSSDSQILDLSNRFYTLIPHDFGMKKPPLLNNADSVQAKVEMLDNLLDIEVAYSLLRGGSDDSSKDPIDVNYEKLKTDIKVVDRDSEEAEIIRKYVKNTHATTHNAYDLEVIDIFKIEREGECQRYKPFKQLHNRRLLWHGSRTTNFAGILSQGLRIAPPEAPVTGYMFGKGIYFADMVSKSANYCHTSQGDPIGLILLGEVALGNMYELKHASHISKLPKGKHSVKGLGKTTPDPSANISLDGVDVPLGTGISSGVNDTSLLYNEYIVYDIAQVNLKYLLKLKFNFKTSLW

`COc1cc(OC)c(/C=C/S(=O)(=O)Cc2ccc(OC)c(NC(=O)CCC(=O)O)c2)c(OC)c1`: the IC50 is 2.08 µM with MDA-MB-231 [1], 3.19 µM in the data set on MDA-MB-468, 2.17 µM in the data set with HCC1937 and 2.09 µM in the data set on MDA-MB-436. The IC50 at 72 h in [2] is > 40 µM.

Consider `COc1cc(OC)c(/C=C/S(=O)(=O)Cc2ccc(OC)c(NC(=O)CCCCC(=O)O)c2)c(OC)c1`, for which the IC50 in the data set on MDA-MB-231 [1] stood at 6.94 µM; with MDA-MB-468 it was 6.99 µM; in the data set on HCC1937 it was 5.29 µM; in the data set on MDA-MB-436, 7.14 µM. Also, the IC50 at 72 h in data set [2] was > 40 µM.

As for `O=C(c1cc(Cc2n[nH]c(=O)c3ccccc23)ccc1F)N1CCNCC1`, the IC50 worked out at 21 µM with MDA-MB-231 [1]; 12.3 µM with MDA-MB-468; 3.21 µM with HCC1937; 2.61 µM in the data set with MDA-MB-436; 0.0395 µM in data set [10]. Besides, the IC50 at 72 h in [2] was > 40 µM. Moreover, the result with MDA-MB-231 [3], in the data set on MDA-MB-231 [4], in the data set on MDA-MB-231 [5], with MDA-MB-231 [6], in the data set with MDA-MB-231 [7] and with MDA-MB-231 [8] was inactive. The result in the data set with MDA-MB-231 [9], with MDA-MB-231 [11] and in the data set on MDA-MB-231 [15] was inactive. Moreover, the figures for the Activity (in the data set with MDA-MB-231 [12]; in [13]; in the data set on MDA-MB-231 [14]) were 21.14%, 23.88% and 66.1%, respectively. Also, the result in the data set with MDA-MB-231 [16] and in the data set with MDA-MB-231 [17] was Active.

Consider `COc1cc(OC)c(/C=C/S(=O)(=O)Cc2ccc(OC)c(NC(=O)CCCC(=O)O)c2)c(OC)c1`, for which the IC50 with MDA-MB-231 [1] came to 3.57 µM; with MDA-MB-468, 5.76 µM; with HCC1937, 3.92 µM; with MDA-MB-436 it was 4.82 µM. Besides, the IC50 at 72 h in data set [2] was > 40 µM.

With `COc1cc(OC)c(/C=C/S(=O)(=O)Cc2ccc(OC)c(NC(=O)CCC(=O)N3CCN(C(=O)c4cc(Cc5n[nH]c(=O)c6ccccc56)ccc4F)CC3)c2)c(OC)c1`, the IC50 in the data set on MDA-MB-231 [1] came out at 1.19 µM; in the data set on MDA-MB-468, 2.94 µM; in the data set on HCC1937, 1.27 µM; in the data set with MDA-MB-436 it was 1.55 µM. The IC50 at 72 h in data set [2] was > 40 µM.

Take `COc1cc(OC)c(/C=C/S(=O)(=O)Cc2ccc(OC)c(NCC(=O)N3CCN(C(=O)c4cc(Cc5n[nH]c(=O)c6ccccc56)ccc4F)CC3)c2)c(OC)c1`: the IC50 in the data set with MDA-MB-231 [1] stood at 1.28 µM; with MDA-MB-468, 1.37 µM; in the data set with HCC1937, 1.99 µM; in the data set on MDA-MB-436, 1.44 µM. For the same molecule, the IC50 at 72 h in data set [2] is > 40 µM.

On to `COc1cc(OC)c(/C=C/S(=O)(=O)Cc2ccc(OC)c(NCCCCCC(=O)N3CCN(C(=O)c4cc(Cc5n[nH]c(=O)c6ccccc56)ccc4F)CC3)c2)c(OC)c1`, for which the IC50 in the data set on MDA-MB-231 [1] worked out at 2.68 µM; in the data set on MDA-MB-468 it was 4.57 µM; with HCC1937, 3.12 µM; with MDA-MB-436, 2.18 µM. Further, the IC50 at 72 h in data set [2] was > 40 µM.

As for `COc1cc(OC)c(/C=C/S(=O)(=O)Cc2ccc(OC)c(NCC(=O)O)c2)c(OC)c1` [RIGOSERTIB], the IC50 in the data set on MDA-MB-231 [1] is 0.23 µM; in the data set on MDA-MB-468 it was 0.45 µM; with HCC1937 it was 0.33 µM; in the data set with MDA-MB-436, 0.25 µM. In data set [2], this molecule yielded an IC50 at 72 h of 18.4 µM.

Turning to `O=C(c1cc(Cc2n[nH]c(=O)c3ccccc23)ccc1F)N1CCN(C(=O)C2CC2)CC1` [OLAPARIB], the IC50 was determined as 25.5 µM in the data set on MDA-MB-231 [1], 14.8 µM in the data set on MDA-MB-468, 5.37 µM with HCC1937 and 4.25 µM in the data set on MDA-MB-436. Also, the IC50 at 72 h in data set [2] is > 40 µM. Moreover, the Activity result in data set [18] and in data set [19] was “Non-Toxic” in each case. For the same molecule, the outcome in the data set on MDA-MB-231 [20], in the data set on MDA-MB-231 [21] and with MDA-MB-231 [22] was Active.

As for `COc1cc(OC)c(/C=C/S(=O)(=O)Cc2ccc(OC)c(NC(=O)CCCCC(=O)N3CCN(C(=O)c4cc(Cc5n[nH]c(=O)c6ccccc56)ccc4F)CC3)c2)c(OC)c1`, the IC50 in the data set with MDA-MB-231 [1] came to 4.57 µM; with MDA-MB-468, 4.85 µM; with HCC1937 it was 3.69 µM; with MDA-MB-436 it was 3.76 µM. The IC50 at 72 h in [2] was > 40 µM.

With `COc1cc(OC)c(/C=C/S(=O)(=O)Cc2ccc(OC)c(NCCCCCC(=O)O)c2)c(OC)c1`, the IC50 in the data set on MDA-MB-231 [1] came out at 2.29 µM; in the data set with MDA-MB-468, 5.37 µM; in the data set on HCC1937, 4.76 µM; in the data set with MDA-MB-436, 3.27 µM. Besides, the IC50 at 72 h in data set [2] is > 40 µM.

Consider `COc1cc(OC)c(/C=C/S(=O)(=O)Cc2ccc(OC)c(NC(=O)CCCC(=O)N3CCN(C(=O)c4cc(Cc5n[nH]c(=O)c6ccccc56)ccc4F)CC3)c2)c(OC)c1`, for which the IC50 worked out at 2.76 µM in the data set on MDA-MB-231 [1], 3.64 µM with MDA-MB-468, 2.01 µM in the data set with HCC1937 and 1.93 µM with MDA-MB-436. Also, the IC50 at 72 h in data set [2] is > 40 µM.
